For five compounds, IC50, CC50 and EC50 results are on record in ChEMBL document CHEMBL1201862, “PubChem BioAssay data set” (2004).

The source made the active and inactive calls.

In assay [1] the target is Glyceraldehyde-3-phosphate dehydrogenase (Homo sapiens, UniProt P04406).
For assay [2], the target named is T1, Bcl-2-related protein A1 (Mus musculus, UniProt Q07440).
T1 sequence (Q07440 whole entry): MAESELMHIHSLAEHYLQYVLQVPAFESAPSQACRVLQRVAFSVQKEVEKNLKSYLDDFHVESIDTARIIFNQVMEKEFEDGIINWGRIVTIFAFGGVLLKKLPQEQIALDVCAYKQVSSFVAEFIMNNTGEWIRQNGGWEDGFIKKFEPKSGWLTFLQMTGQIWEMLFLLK
In words: small-molecule antagonists of Bfl-1/BH3 interaction – biochemical, TR-FRET, mouse Bfl-1, confirmation (AID 621). (In general: Time-resolved FRET reads energy transfer from a long-lived donor to a nearby acceptor.)

The target of assay [3] is T1, Bcl-2-related protein A1. In words: Bfl-1 binding inhibitors, SAR follow-up, biochemical, fluorescence polarization (AID 1070). A general note: Fluorescence polarisation rises when a labelled molecule tumbles more slowly, as on binding a larger partner.
The target of the next assay is Aspartyl aminopeptidase (Plasmodium falciparum 3D7, UniProt Q8I2J3). In words: Counterscreen for inhibitors of M1 and M17 aminopeptidases: QFRET-based biochemical high throughput dose response assay for inhibitors of the Plasmodium falciparum M18 Aspartyl Aminopeptidase (PFM18AAP). [Related PubChem assays: 1619 (Screening assay (M17LAP inhibitors).), 1445 (Screening assay (M1AAP inhibitors).)].

The next assay addresses T2, Aminopeptidase N (Plasmodium falciparum FcB1/Columbia, UniProt O96935).
T2 sequence (O96935 whole entry): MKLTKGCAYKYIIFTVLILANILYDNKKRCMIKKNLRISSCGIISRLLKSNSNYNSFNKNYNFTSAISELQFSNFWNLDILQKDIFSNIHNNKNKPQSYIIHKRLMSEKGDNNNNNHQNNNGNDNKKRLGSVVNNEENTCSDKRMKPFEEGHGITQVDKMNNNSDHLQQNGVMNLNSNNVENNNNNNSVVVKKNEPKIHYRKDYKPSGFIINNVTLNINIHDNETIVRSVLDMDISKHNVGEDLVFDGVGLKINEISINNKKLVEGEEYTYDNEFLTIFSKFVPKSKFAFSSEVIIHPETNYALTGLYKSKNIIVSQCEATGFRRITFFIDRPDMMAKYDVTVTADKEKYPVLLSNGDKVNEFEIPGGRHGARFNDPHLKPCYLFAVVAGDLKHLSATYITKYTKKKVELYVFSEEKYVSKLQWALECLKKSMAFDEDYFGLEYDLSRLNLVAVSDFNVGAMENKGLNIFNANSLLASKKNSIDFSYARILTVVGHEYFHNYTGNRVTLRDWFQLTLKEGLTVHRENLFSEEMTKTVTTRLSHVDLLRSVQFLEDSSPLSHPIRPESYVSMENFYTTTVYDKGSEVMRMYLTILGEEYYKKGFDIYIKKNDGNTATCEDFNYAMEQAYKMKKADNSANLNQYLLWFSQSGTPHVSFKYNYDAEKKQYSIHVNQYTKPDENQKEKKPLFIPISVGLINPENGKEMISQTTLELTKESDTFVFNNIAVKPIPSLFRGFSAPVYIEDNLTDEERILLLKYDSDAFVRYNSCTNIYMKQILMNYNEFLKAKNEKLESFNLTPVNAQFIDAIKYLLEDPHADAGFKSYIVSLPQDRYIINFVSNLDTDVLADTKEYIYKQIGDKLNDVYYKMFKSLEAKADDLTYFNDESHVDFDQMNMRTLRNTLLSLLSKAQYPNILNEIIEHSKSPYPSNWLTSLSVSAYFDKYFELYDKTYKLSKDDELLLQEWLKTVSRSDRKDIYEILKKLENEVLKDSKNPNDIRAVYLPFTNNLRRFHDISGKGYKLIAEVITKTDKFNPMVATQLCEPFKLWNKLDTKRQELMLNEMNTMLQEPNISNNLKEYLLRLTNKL
In words: malaria alanyl aminopeptidase activity blockers – biochemical, fluorogenic H-Leu-NHMec substrate, 1536-well (AID 1445). Set-up: species or system Plasmodium falciparum 3D7, 3D7.

In another assay the target is Procathepsin L (Homo sapiens, UniProt P07711). In words: CTSL1 protease inhibition – biochemical, QFRET, 1536-well, counter-screen for M1/M17 aminopeptidase inhibitor project, dose response (AID 2214). (In general: A counterscreen serves to expose hits that act by an unwanted route or on another target.)
In the next assay the target is T3, Leucine aminopeptidase (Plasmodium falciparum 3D7, UniProt Q8IL11).
T3 sequence (Q8IL11 whole entry): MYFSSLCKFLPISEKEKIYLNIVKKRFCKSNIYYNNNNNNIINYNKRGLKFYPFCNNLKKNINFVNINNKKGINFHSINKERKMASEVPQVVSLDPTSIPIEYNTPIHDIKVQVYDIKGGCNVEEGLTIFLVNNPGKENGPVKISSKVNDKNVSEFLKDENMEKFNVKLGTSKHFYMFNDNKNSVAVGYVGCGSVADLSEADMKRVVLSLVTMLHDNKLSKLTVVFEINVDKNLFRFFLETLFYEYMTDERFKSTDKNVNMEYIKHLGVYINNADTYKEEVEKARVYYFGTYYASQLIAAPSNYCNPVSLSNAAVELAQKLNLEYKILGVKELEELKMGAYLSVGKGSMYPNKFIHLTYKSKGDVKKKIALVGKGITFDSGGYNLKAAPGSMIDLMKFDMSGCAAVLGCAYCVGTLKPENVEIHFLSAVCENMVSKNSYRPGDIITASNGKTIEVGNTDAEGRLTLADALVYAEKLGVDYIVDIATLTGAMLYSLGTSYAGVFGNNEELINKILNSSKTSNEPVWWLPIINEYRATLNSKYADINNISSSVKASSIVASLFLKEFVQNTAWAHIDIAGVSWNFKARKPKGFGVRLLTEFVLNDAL
In words: P. falciparum M17LAP inhibitors, primary screen, biochemical, fluorogenic H-Leu-NHMec substrate, 1536-well (AID 1619). It is filed as functional.

Assay [4] in a line: A Cell Based Secondary Assay To Explore Cytotoxicity of Compounds that Sensitize Mycobacterium Tuberculosis to Beta-Lactam Antibiotics. The class given is functional.
In assay [5] the target is T4, Eukaryotic translation initiation factor 2-alpha kinase 3 (Homo sapiens, UniProt Q9NZJ5).
T4 sequence (Q9NZJ5 whole entry): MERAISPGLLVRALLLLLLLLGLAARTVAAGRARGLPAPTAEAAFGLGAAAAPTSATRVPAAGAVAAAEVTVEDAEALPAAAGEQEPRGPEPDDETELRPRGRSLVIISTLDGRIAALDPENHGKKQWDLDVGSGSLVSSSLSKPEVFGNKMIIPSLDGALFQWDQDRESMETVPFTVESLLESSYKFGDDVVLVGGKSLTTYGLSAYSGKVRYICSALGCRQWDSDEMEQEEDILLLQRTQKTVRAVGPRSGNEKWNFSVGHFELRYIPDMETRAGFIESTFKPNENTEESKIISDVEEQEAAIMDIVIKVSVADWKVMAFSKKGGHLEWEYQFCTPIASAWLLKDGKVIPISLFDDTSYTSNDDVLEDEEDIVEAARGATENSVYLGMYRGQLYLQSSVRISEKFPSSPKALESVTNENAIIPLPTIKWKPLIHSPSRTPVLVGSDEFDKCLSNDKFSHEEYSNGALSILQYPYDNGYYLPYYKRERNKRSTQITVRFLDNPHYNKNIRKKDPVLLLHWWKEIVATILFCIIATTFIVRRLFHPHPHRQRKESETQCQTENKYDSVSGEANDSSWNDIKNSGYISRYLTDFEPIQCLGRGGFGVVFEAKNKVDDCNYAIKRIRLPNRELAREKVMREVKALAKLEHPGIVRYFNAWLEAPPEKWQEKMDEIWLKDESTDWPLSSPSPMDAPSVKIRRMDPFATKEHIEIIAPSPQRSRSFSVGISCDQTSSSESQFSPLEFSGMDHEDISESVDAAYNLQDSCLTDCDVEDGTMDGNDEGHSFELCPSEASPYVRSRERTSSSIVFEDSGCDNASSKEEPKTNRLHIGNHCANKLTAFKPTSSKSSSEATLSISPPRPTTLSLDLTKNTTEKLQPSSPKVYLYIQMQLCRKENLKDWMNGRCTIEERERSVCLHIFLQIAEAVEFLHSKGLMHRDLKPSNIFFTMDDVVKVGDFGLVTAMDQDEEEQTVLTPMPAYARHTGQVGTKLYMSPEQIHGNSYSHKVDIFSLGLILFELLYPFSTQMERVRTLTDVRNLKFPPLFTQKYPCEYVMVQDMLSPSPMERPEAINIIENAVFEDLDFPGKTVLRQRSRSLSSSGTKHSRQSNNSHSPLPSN
In words: Dose response cell-based high-throughput screening assay to measure PERK inhibition. [Related pubchem assays: 1416 ]. The class given is functional.

Assay [6] has as its target T4, Eukaryotic translation initiation factor 2-alpha kinase 3. In words: Counterscreen assay for PERK inhibitors: Dose response cell-based high throughput screening assay to measure inhibition of PERK at 6 hours. [Related pubchem assays: 1522, 1416 ]. It is filed as functional.

Sequence of Aspartyl aminopeptidase (Q8I2J3 whole entry): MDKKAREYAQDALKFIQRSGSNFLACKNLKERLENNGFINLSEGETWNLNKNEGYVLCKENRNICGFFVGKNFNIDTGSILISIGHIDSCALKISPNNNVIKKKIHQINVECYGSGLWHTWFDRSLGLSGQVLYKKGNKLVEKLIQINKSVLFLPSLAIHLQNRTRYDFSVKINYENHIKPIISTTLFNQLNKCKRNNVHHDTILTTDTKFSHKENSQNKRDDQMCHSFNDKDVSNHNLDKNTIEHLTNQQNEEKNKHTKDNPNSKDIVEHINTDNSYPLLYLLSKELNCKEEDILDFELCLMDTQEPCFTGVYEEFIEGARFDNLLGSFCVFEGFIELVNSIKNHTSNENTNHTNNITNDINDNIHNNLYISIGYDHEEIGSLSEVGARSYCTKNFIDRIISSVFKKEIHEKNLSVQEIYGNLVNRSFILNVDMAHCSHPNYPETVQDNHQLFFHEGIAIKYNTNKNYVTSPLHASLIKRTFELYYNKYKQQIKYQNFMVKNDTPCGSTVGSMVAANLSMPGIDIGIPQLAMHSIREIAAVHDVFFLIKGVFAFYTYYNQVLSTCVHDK
Sequence of Procathepsin L (P07711 whole entry): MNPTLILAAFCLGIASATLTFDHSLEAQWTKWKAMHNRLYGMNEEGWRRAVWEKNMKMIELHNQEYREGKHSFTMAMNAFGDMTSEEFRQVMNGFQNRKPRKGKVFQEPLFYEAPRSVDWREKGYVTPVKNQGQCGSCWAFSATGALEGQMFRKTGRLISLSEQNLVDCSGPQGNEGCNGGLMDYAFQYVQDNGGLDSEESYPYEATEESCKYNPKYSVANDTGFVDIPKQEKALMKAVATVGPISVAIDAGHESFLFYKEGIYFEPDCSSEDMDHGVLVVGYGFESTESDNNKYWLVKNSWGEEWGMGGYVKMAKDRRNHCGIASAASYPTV
Sequence of Glyceraldehyde-3-phosphate dehydrogenase (P04406 whole entry): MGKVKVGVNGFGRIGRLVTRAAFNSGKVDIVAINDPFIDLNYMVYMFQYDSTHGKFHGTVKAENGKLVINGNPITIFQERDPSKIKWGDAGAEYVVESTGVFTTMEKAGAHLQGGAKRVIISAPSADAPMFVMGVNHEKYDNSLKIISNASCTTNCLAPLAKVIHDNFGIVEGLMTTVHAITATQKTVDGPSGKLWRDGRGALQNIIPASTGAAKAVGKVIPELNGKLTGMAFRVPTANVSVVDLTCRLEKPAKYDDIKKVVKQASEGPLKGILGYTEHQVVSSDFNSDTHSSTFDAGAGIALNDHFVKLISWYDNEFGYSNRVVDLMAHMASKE

For orientation: IC50 means the concentration that inhibits the measured activity by half. In the case of `O=C1C(Cl)=C(N2CCCC2)C(=O)N1c1ccc(Cl)c(Cl)c1`, the IC50 (in [1]; on Bcl-2-related protein A1 [2]; at Bcl-2-related protein A1 [3]) was > 100 µM (not active) each time.

`CCCS(=O)(=O)N1CCC(C(=O)NCc2ccc3c(c2)OCO3)CC1`: the IC50 at Aspartyl aminopeptidase was > 73.5 µM (not active); on Aminopeptidase N, 13.1 µM (active); on Procathepsin L, > 59.6 µM (not active).

`O=C(CSc1nc2c(c(=O)[nH]1)CN(Cc1ccc(F)cc1)CC2)Nc1ccc(F)cc1`: the IC50 on Leucine aminopeptidase is 7.8 µM (active); on Aspartyl aminopeptidase it was > 73.5 µM (not active); on Procathepsin L, > 59.6 µM (not active).

What is called CC50 is the concentration that lowers cell viability or growth by half. Turning to `O=c1c2cc(Cl)ccc2[nH]c(=S)n1Cc1cccs1`, the 50% cytotoxic concentration (CC50) in assay [4] was > 40 µM (active).

In general, EC50 refers to the concentration giving half of the maximal effect. Read a low EC50 as greater potency. Take `O=C1c2ccncc2C(=O)N1c1cccc(Cl)c1`: the EC50 in [5] and in assay [6] was > 55.7 µM (not active) throughout.
